In ChEMBL document CHEMBL1150449, “Conversion of acyclic nonpeptide CCK antagonists into CCK agonists” (Bioorg Med Chem Lett, 1997):

Assays:
Mus musculus = experiment: Tested in vivo for the relative efficacy (relative to CCK-8 (1 nmol/kg)) for mouse gallbladder emptying after ip administration (0.1 umol/kg); type: functional
[1] = molecular target: Cholecystokinin receptor type A (Cavia porcellus); experiment: Concentration of compound that induced 50% of the maximal contraction in guinea pig gallbladder tissue when tested in vitro
[2] = molecular target: T1, Cholecystokinin receptor type A (Homo sapiens, UniProt P32238); experiment: Tested for the 50% displacement of [125I]CCK-8 from membrane preparation isolated from CHO-K1 cells stably transfected with the cDNA of human Cholecystokinin type A receptor; type: cell membranes
T1 sequence (P32238 whole entry): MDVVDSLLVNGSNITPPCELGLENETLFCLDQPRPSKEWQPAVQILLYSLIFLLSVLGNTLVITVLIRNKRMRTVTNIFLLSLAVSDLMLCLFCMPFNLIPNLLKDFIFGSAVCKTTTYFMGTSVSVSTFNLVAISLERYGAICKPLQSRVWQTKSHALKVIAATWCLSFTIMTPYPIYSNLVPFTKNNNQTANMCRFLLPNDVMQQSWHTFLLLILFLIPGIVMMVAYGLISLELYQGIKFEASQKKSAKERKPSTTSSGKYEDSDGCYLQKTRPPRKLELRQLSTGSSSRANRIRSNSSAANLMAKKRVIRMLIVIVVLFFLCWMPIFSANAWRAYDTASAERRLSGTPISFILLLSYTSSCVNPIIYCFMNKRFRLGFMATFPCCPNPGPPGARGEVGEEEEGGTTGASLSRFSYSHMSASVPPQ

[3] = molecular target: T2, Gastrin/cholecystokinin type B receptor (Homo sapiens, UniProt P32239); experiment: Tested for 50% displacement of [125I]CCK-8 from membrane preparation isolated from CHO-K1 cells stably transfected with the cDNA of human Cholecystokinin type B receptor; type: cell membranes
T2 sequence (P32239 whole entry): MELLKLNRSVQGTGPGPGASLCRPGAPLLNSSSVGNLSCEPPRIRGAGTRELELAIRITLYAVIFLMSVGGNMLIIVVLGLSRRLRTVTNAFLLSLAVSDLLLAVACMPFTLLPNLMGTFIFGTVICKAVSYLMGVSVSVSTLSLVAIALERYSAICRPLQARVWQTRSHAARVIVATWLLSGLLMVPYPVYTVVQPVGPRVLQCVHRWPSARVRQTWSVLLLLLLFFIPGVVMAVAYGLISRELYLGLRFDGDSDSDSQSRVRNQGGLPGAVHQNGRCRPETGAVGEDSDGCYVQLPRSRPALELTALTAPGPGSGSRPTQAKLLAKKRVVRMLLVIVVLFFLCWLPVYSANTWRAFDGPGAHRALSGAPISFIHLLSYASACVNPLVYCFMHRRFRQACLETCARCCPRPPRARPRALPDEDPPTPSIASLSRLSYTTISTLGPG

SMILES | Relative efficacy (Mus musculus) | EC50 [1] | IC50 [2] | IC50 [3]
CCCCCN(CC(=O)N(c1ccccc1)C(C)C)C(=O)[C@@H](CCC(=O)O)NC(=O)Nc1ccccc1 | 0.3 |  |  | 
COc1ccc(N(C(=O)CN(C(=O)[C@@H](CCC(=O)O)NC(=O)Nc2ccccc2)c2ccccc2)C(C)C)cc1 | 0.8 | 110 nM | 251 nM | 31600 nM
CC(C)N(C(=O)CN(C(=O)[C@@H](CCC(=O)O)NC(=O)Nc1ccccc1)c1ccccc1)c1ccccc1 | 0.6 | 210 nM | 1580 nM | 10000 nM
CC(C)N(C(=O)CN(C(=O)CNC(=O)Nc1ccccc1)c1ccccc1)c1ccccc1 | <0.2 | 300 nM | 3160 nM | 1580 nM
COc1ccc(N(C(=O)CN(C(=O)[C@H](CCC(=O)O)NC(=O)Nc2ccccc2)c2ccccc2)C(C)C)cc1 |  | 5600 nM |  | 
